Test results from US10052330B2, “Substituted pyrido[3,4-b]pyrazines as Syk inhibitors” (HUTCHISON MEDIPHARMA LIMITED, priority 2011, dated 2018).
pIC50: −log10 of the molar value. Where two headings read alike, the source gives them in different places.

Assays:
RBL-2H3 cells = assay: IgE-induced Beta-hexosaminidase secretion in RBL-2H3 cells; type: cell-based; conditions: Rattus norvegicus
Syk kinase = Syk kinase (Homo sapiens, UniProt P43405); assay: Syk kinase enzymatic assay (Kit-Tyr 2 Peptide); type: biochemical
[1] = RBL-2H3, RBL-2H3 cells sensitized with SPE-7, stimulated with DNP-BSA, upper bound of each range is 'less than', read-out: IC50, IgE-induced Beta-hexosaminidase secretion
[2] = 8 concentrations, 1 μM down to 0.0003 μM, upper bound of each range is 'less than', read-out: IC50: Enzymatic Activity (Syk kinase)

Structure (SMILES)	pIC50 (Syk kinase; [2])	pIC50 (RBL-2H3 cells; [1])	pIC50 (RBL-2H3 cells; RBL-2H3, read-out: IC50, IgE-induced Beta-hexosaminidase secretion)	pIC50 (Syk kinase)
CCC(=O)N1CCN(c2ccc(-c3cc4nccnc4c(NC[C@@H]4CNCCO4)n3)cc2)CC1 [Compound 267]	7.00 to 9.00	7.00 to 9.00		
c1cnc2c(NC[C@@H]3CNCCO3)nc(-c3ccc(N4CCCOCC4)nc3)cc2n1 [Compound 269]	7.00 to 9.00	7.00 to 9.00		
CN(C)C(=O)C1CCN(c2ccc(-c3cc4nccnc4c(NC[C@@H]4CNCCO4)n3)cc2)CC1 [Compound 270]	7.00 to 9.00	6.00 to 7.00		
O=C(CO)N1CCN(c2ccc(-c3cc4nccnc4c(NC[C@@H]4CNCCO4)n3)cc2)CC1 [Compound 272]	7.00 to 9.00	7.00 to 9.00		
CC(C)(O)C1CCN(c2ccc(-c3cc4nccnc4c(NC[C@@H]4CNCCO4)n3)cc2)CC1 [Compound 275]	7.00 to 9.00	7.00 to 9.00		
CC(Nc1nc(-c2ccc(N3CCOCC3)cc2)cc2nccnc12)C1CNCCO1 (stereo not drawn) [Compound 276]	7.00 to 9.00	7.00 to 9.00		
CC(Nc1nc(-c2ccc(N3CCOCC3)c(F)c2)cc2nccnc12)C1CNCCO1 (stereo not drawn) [Compound 278]	7.00 to 9.00	7.00 to 9.00		
COCC(=O)N1CCN(c2ccc(-c3cc4nccnc4c(NC[C@@H]4CNCCO4)n3)cc2)CC1 [Compound 279]	7.00 to 9.00	7.00 to 9.00		
CS(=O)(=O)CC(=O)N1CCN(c2ccc(-c3cc4nccnc4c(NC[C@@H]4CNCCO4)n3)cc2)CC1 [Compound 280]	7.00 to 9.00	6.00 to 7.00		
CN(c1ccc(-c2cc3nccnc3c(NC[C@@H]3CNCCO3)n2)cc1)C1CCOCC1 [Compound 285]	7.00 to 9.00	7.00 to 9.00		
OCCOC1CCN(c2ccc(-c3cc4nccnc4c(NC[C@@H]4CNCCO4)n3)cc2)CC1 [Compound 286]	7.00 to 9.00	7.00 to 9.00		
CCS(=O)(=O)N1CCN(c2ccc(-c3cc4nccnc4c(NC[C@@H]4CNCCO4)n3)cc2F)CC1 [Compound 287]	7.00 to 9.00	7.00 to 9.00		
FC1(CNc2nc(-c3cnn(C4CCCC4)c3)cc3nccnc23)CCCNC1 (stereo not drawn) [Compound 289]	7.00 to 9.00	7.00 to 9.00		
FC1(CNc2nc(-c3cnn(C4CCOCC4)c3)cc3nccnc23)CCCNC1 (stereo not drawn) [Compound 290]	7.00 to 9.00	7.00 to 9.00		
FC1(F)CCNCC1CNc1nc(-c2ccc(N3CCOCC3)nc2)cc2nccnc12 (stereo not drawn) [Compound 292]	7.00 to 9.00	7.00 to 9.00		
Fc1cc(-c2cc3nccnc3c(NCC3CNCCC3(F)F)n2)ccc1N1CCOCC1 (stereo not drawn) [Compound 294]	7.00 to 9.00	7.00 to 9.00		
Cc1cc(-c2cc3nccnc3c(NCC3CNCCC3(F)F)n2)ccc1N1CCOCC1 (stereo not drawn) [Compound 295]	7.00 to 9.00	7.00 to 9.00		
CCn1cc(-c2cc3nccnc3c(NCC3CNCCC3(F)F)n2)cn1 (stereo not drawn) [Compound 311]	7.00 to 9.00	7.00 to 9.00		
OCCN1CCN(c2ccc(-c3cc4nccnc4c(NCC4CNCCC4(F)F)n3)cc2)CC1 (stereo not drawn) [Compound 312]	7.00 to 9.00	7.00 to 9.00		
FC1(F)CCNCC1CNc1nc(-c2cnn(C3CCOCC3)c2)cc2nccnc12 (stereo not drawn) [Compound 314]	7.00 to 9.00	7.00 to 9.00		

Structure (SMILES)	pIC50 (Syk kinase; [2])	pIC50 (RBL-2H3 cells; [1])	pIC50 (RBL-2H3 cells; RBL-2H3, read-out: IC50, IgE-induced Beta-hexosaminidase secretion)	pIC50 (Syk kinase)
OCCn1cc(-c2cc3nccnc3c(NCC3CNCCC3(F)F)n2)cn1 (stereo not drawn) [Compound 315]	7.00 to 9.00	7.00 to 9.00		
CC(=O)N1CCN(c2ccc(-c3cc4nccnc4c(NCC4CNCCC4(F)F)n3)cn2)CC1 (stereo not drawn) [Compound 316]	7.00 to 9.00	7.00 to 9.00		
CC(=O)N1CCN(c2ccc(-c3cc4nccnc4c(NCC4CNCCC4(F)F)n3)cc2F)CC1 (stereo not drawn) [Compound 318]	7.00 to 9.00	7.00 to 9.00		
CC(=O)N1CCC(n2cc(-c3cc4nccnc4c(NCC4CNCCC4(F)F)n3)cn2)CC1 (stereo not drawn) [Compound 320]	7.00 to 9.00	7.00 to 9.00		
CS(=O)(=O)N1CCC(n2cc(-c3cc4nccnc4c(NCC4CNCCC4(F)F)n3)cn2)CC1 (stereo not drawn) [Compound 321]	7.00 to 9.00	7.00 to 9.00		
O=C(C1CC1)N1CCO[C@H](CNc2nc(-c3ccc(N4CCOCC4)cc3)cc3nccnc23)C1 [Compound 322]	7.00 to 9.00	6.00 to 7.00		
O=C(C(F)F)N1CCO[C@H](CNc2nc(-c3ccc(N4CCOCC4)cc3)cc3nccnc23)C1 [Compound 323]	7.00 to 9.00	7.00 to 9.00		
N#CCC(=O)N1CCO[C@H](CNc2nc(-c3ccc(N4CCOCC4)cc3)cc3nccnc23)C1 [Compound 324]	7.00 to 9.00	7.00 to 9.00		
CS(=O)(=O)N1CCO[C@H](CNc2nc(-c3ccc(N4CCOCC4)cc3)cc3nccnc23)C1 [Compound 332]	7.00 to 9.00	7.00 to 9.00		
NS(=O)(=O)N1CCO[C@H](CNc2nc(-c3ccc(N4CCOCC4)cc3)cc3nccnc23)C1 [Compound 333]	7.00 to 9.00	7.00 to 9.00		
O=C(CF)N1CCO[C@H](CNc2nc(-c3ccc(N4CCOCC4)cc3)cc3nccnc23)C1 [Compound 340]			7.00 to 9.00	7.00 to 9.00
CCS(=O)(=O)N1CCO[C@H](CNc2nc(-c3ccc(N4CCOCC4)cc3)cc3nccnc23)C1 [Compound 346]	7.00 to 9.00	7.00 to 9.00		
NC(=O)N1CCO[C@H](CNc2nc(-c3ccc(N4CCOCC4)cc3)cc3nccnc23)C1 [Compound 347]	7.00 to 9.00	7.00 to 9.00		
CS(=O)(=O)N1CCN(c2ccc(-c3cc4nccnc4c(N4CC[C@H](CO)C4)n3)cc2)CC1 [Compound 362]	7.00 to 9.00	7.00 to 9.00		
Fc1cc(-c2cc3nccnc3c(NC[C@@H]3CNCCC3(F)F)n2)ccc1N1CCOCC1 [Compound 368, (S)—N-((4,4-difluoropiperidin-3-yl)methyl)-7-(3-fluoro-4-morpholinophenyl) pyrido[4,3-b]pyrazin-5-amine]	7.00 to 9.00	7.00 to 9.00		
Cc1cc(-c2cc3nccnc3c(NC[C@@H]3CNCCC3(F)F)n2)ccc1N1CCOCC1 [Compound 370, (S)—N-((4,4-difluoropiperidin-3-yl)methyl)-7-(3-methyl-4-morpholinophenyl) pyrido[4,3-b]pyrazin-5-amine]	7.00 to 9.00	7.00 to 9.00		
Cc1cc(-c2cc3nccnc3c(NC[C@H]3CNCCC3(F)F)n2)ccc1N1CCOCC1 [Compound 371, (R)—N-((4,4-difluoropiperidin-3-yl)methyl)-7-(3-methyl-4-morpholinophenyl)pyrido[4,3-b]pyrazin-5-amine]	7.00 to 9.00	7.00 to 9.00		
FC1(F)CCNC[C@H]1CNc1nc(-c2ccc(N3CCOCC3)nc2)cc2nccnc12 [Compound 374, (S)—N-((4,4-difluoropiperidin-3-yl)methyl)-7-(6-morpholinopyridin-3-yl)pyrido[4,3-b]pyrazin-5-amine]	7.00 to 9.00	7.00 to 9.00		
F[C@@]1(CNc2nc(-c3ccc(N4CCOCC4)cc3)cc3nccnc23)CCCNC1 [Compound 376, (S)—N-((3-fluoropiperidin-3-yl)methyl)-7-(4-morpholinophenyl)pyrido[4,3-b]pyrazin-5-amine]	7.00 to 9.00	7.00 to 9.00		

The next lines start with results.

pIC50 (Syk kinase; [2])	Structure (SMILES)	pIC50 (RBL-2H3 cells; [1])	pIC50 (RBL-2H3 cells; RBL-2H3, read-out: IC50, IgE-induced Beta-hexosaminidase secretion)	pIC50 (Syk kinase)
7.00 to 9.00	CNc1ccc(-c2cc3nccnc3c(NCC3CNCCC3(F)F)n2)cc1 (stereo not drawn) [Compound 291]	7.00 to 9.00		
7.00 to 9.00	CN1CCN(c2ccc(-c3cc4nccnc4c(NCC4CNCCC4(F)F)n3)cc2)CC1 (stereo not drawn) [Compound 293]	6.00 to 7.00		
7.00 to 9.00	COc1ccc(-c2cc3nccnc3c(NCC3CNCCC3(F)F)n2)cc1F (stereo not drawn) [Compound 296]	7.00 to 9.00		
7.00 to 9.00	CC(C)Oc1ccc(-c2cc3nccnc3c(NCC3CNCCC3(F)F)n2)cc1F (stereo not drawn) [Compound 297]	7.00 to 9.00		
7.00 to 9.00	COc1ccc(-c2cc3nccnc3c(NCC3CNCCC3(F)F)n2)cc1Cl (stereo not drawn) [Compound 298]	7.00 to 9.00		
7.00 to 9.00	CNc1ccc(-c2cc3nccnc3c(NCC3CNCCC3(F)F)n2)cc1F (stereo not drawn) [Compound 300]	7.00 to 9.00		
7.00 to 9.00	CN(C)c1ccc(-c2cc3nccnc3c(NCC3CNCCC3(F)F)n2)cc1F (stereo not drawn) [Compound 301]	7.00 to 9.00		
7.00 to 9.00	CNc1ccc(-c2cc3nccnc3c(NCC3CNCCC3(F)F)n2)cn1 (stereo not drawn) [Compound 302]	7.00 to 9.00		
6.00 to 7.00	CN(C)Cc1ccc(-c2cc3nccnc3c(NCC3CNCCC3(F)F)n2)cc1 (stereo not drawn) [Compound 303]	6.00 to 7.00		
6.00 to 7.00	CN(C)C(=O)c1ccc(-c2cc3nccnc3c(NCC3CNCCC3(F)F)n2)cc1 (stereo not drawn) [Compound 304]	7.00 to 9.00		
7.00 to 9.00	CC(=O)N1CCN(c2ccc(-c3cc4nccnc4c(NCC4CNCCC4(F)F)n3)cc2)CC1 (stereo not drawn) [Compound 305]	7.00 to 9.00		
7.00 to 9.00	CNC(=O)COc1ccc(-c2cc3nccnc3c(NCC3CNCCC3(F)F)n2)cc1 (stereo not drawn) [Compound 306]	7.00 to 9.00		
7.00 to 9.00	FC1(F)CCNCC1CNc1nc(-c2ccc(N3CCNCC3)cc2)cc2nccnc12 (stereo not drawn) [Compound 307]	7.00 to 9.00		
7.00 to 9.00	CC1CN(c2ccc(-c3cc4nccnc4c(NCC4CNCCC4(F)F)n3)cc2)CCO1 (stereo not drawn) [Compound 309]	7.00 to 9.00		
7.00 to 9.00	CS(=O)(=O)c1ccc(-c2cc3nccnc3c(NCC3CNCCC3(F)F)n2)cc1 (stereo not drawn) [Compound 310]	7.00 to 9.00		
7.00 to 9.00	CN(c1ccc(-c2cc3nccnc3c(NCC3CNCCC3(F)F)n2)cc1)S(C)(=O)=O (stereo not drawn) [Compound 313]	7.00 to 9.00		
7.00 to 9.00	CN1CCN(c2ccc(-c3cc4nccnc4c(NC[C@@H]4CNCCC4(F)F)n3)cc2)CC1 [Compound 372, (S)—N-((4,4-difluoropiperidin-3-yl)methyl)-7-(4-(4-methylpiperazin-1-yl)phenyl)pyrido[4,3-b]pyrazin-5-amine]	6.00 to 7.00		
6.00 to 7.00	CN1CCN(c2ccc(-c3cc4nccnc4c(NC[C@H]4CNCCC4(F)F)n3)cc2)CC1 [Compound 373, (R)—N-((4,4-difluoropiperidin-3-yl)methyl)-7-(4-(4-methylpiperazin-1-yl)phenyl)pyrido[4,3-b]pyrazin-5-amine]	6.00 to 7.00		
